Experimental data reported in patent US20070116781A1, “Hydrogen Cyanamide Pesticide Formulations” (priority 2005, published 2007).

How the values were obtained:
spiral nematodes = test: Nematicidal activity in covered pots of naturally infested silt loam, soybean planted after 12 days; assay type: in vivo, Helicotylenchus dihystera
Procedure: (§1) In this study, the soil was naturally infested with four species of nematodes, two of which were deleterious and two beneficial, and observations were made of both the nematode survival and the growth of the soybean plants.
(§2) Stock solutions of hydrogen cyanamide at 1.0% by weight and propionic acid at 5.0% by weight, both in water, were prepared, the hydrogen cyanamide from a phosphate-buffered 50% aqueous solution. Planting pots measuring 10 cm in diameter, each containing 1 kg of soil, were used. The soil was silt loam from a cotton field, pH 6.2, CEC<10 meq/100 g soil, organic matter<1.0%. The treatment chemicals were combined in various dilutions such that 100 mL of the combined dilutions contained the desired amount of each chemical for each test. The combined dilutions were then applied to the soil surface in each pot, at 100 mL of combined dilution per pot. The dilutions were selected to achieve target application rates expressed in milligrams of the treatment chemical per kilogram of soil, with 1 milligram of treatment chemical per kilogram of soil being approximately equal to 2 kilograms of the chemical per hectare of soil or 2 pounds of the chemical per acre of soil.
(§3) Immediately after the treatment chemicals were applied, each pot was covered by a thick (1.5 mil), clear, low-density polyethylene bag. After twelve days, the bags were removed and soil samples were taken from each pot for nematological analysis by the salad bowl technique of Rodriguez-Kabana, R., and M. H. Pope, Nematropica, 11: 175-186 (1981). The results of these analyses are listed in Table I as pre-plant test results. The results for the two deleterious nematodes are also shown as plots of the number of nematodes vs. the hydrogen cyanamide application rate in FIGS. 1 and 2.
(§4) After the polyethylene bags were removed, each pot was planted with Hutcheson soybean seeds at 5 seeds per pot, and the seeds were allowed to germinate and the plants to grow for 45 days. The resulting plants were then removed from the pots, the root systems were washed, and the number of plants in each pot was determined. The weights of both fresh shoots and roots were also determined as well as the shoot height and the relative health of the root system, using a subjective index. Soil samples were also collected, and the soil and roots were incubated to determine nematode populations. Treatments were arranged in randomized complete block design with seven replications per treatment, and statistical evaluation of the data was performed with analyses of variance (ANOVA) and standard regression procedures. Fischer's Least Significant Difference at p 0.05 was calculated when appropriate. The results of these tests are listed as final test results in Tables II, III, and IV, with nematode populations in the soil listed in Table II, the nematode populations in the root systems in Table III, and the plant and root parameters of the soybean shoots in Table IV.

morningglory = test: Herbicidal activity, phosphate-free cyanamide and propionic acid, post-emergence, uncovered pots; assay type: in vivo, Ipomoea spp.
Text: (§5) The procedures in this example differed from those of Example 2, however, by the use of hydrogen cyanamide crystals free of phosphate ion to prepare the aqueous hydrogen cyanamide solution, by the use of post-emergence application, and by the omission of any covering of the pots during any part of the test. Observations were made for total weed growth, and individual observations were also made for yellow nutsedge, crabgrass, sicklepod, and momingglory. Stock solutions of hydrogen cyanamide at 1.25% by weight and propionic acid at 5.0% by weight, both in water, were prepared as before, except that the hydrogen cyanamide solution, as noted above, was prepared by dissolving hydrogen cyanamide crystals in water in the absence of phosphate ion. […] The weeds were allowed to grow for three weeks before the treatment chemicals were applied. […] Data analyses were performed in the same manner as Examples 1 and 2. Table IX lists the results in weeds per pot for all weeds, Table X for yellow nutsedge, Table XI for crabgrass, Table XII for sicklepod, and Table XIII for morningglory, all both with propionic acid alone at various application rates and with […]

reniform nematodes = test: Nematicidal activity in covered pots of naturally infested silt loam, soybean planted after 12 days; assay type: in vivo, Rotylenchulus reniformus
Procedure: as §1, §2, §3, §4

all weeds = test: Herbicidal activity, phosphate-free cyanamide and propionic acid, post-emergence, uncovered pots; assay type: in vivo
Text: as §5, with “application” for “application rates and with”

microbivorous nematodes = test: Effect on beneficial nematodes in covered pots of silt loam; assay type: in vivo
Procedure: as §1, §2, §3, §4

[1] = 12 d after treatment, pre-plant, cyanamide 20 mg/kg soil
[2] = 12 d after treatment, pre-plant, cyanamide 40 mg/kg soil
[3] = 12 d after treatment, pre-plant, cyanamide 60 mg/kg soil
[4] = 12 d after treatment, pre-plant, cyanamide 80 mg/kg soil
[5] = 12 d after treatment, pre-plant, cyanamide 120 mg/kg soil
[6] = 57 d after treatment, 45 d after planting, cyanamide 20 mg/kg soil
[7] = 57 d after treatment, 45 d after planting, cyanamide 40 mg/kg soil
[8] = 57 d after treatment, 45 d after planting, cyanamide 60 mg/kg soil
[9] = 57 d after treatment, 45 d after planting, cyanamide 80 mg/kg soil
[10] = 57 d after treatment, 45 d after planting, cyanamide 120 mg/kg soil
[11] = 57 d after treatment, cyanamide 20 mg/kg soil
[12] = 57 d after treatment, cyanamide 40 mg/kg soil
[13] = 57 d after treatment, cyanamide 60 mg/kg soil
[14] = 57 d after treatment, cyanamide 80 mg/kg soil
[15] = 57 d after treatment, cyanamide 120 mg/kg soil
[16] = 6 d after treatment, cyanamide 150 mg/kg soil
[17] = 13 d after treatment, cyanamide 150 mg/kg soil
[18] = 20 d after treatment, cyanamide 150 mg/kg soil
[19] = hydrogen cyanamide 125 mg/kg of soil alone, all intervals
[20] = 12 d after treatment, pre-plant, C2H5CO2H 250 mg/kg soil
[21] = 57 d after treatment, 45 d after planting, C2H5CO2H 250 mg/kg soil
[22] = 57 d after treatment, C2H5CO2H 250 mg/kg soil
[23] = 6 d after treatment, C2H5CO2H 100 mg/kg soil
[24] = 6 d after treatment, C2H5CO2H 200 mg/kg soil
[25] = 6 d after treatment, C2H5CO2H 300 mg/kg soil
[26] = 6 d after treatment, C2H5CO2H 400 mg/kg soil
[27] = 6 d after treatment, C2H5CO2H 500 mg/kg soil
[28] = 13 d after treatment, C2H5CO2H 100 mg/kg soil
[29] = 13 d after treatment, C2H5CO2H 200 mg/kg soil
[30] = 13 d after treatment, C2H5CO2H 300 mg/kg soil
[31] = 13 d after treatment, C2H5CO2H 400 mg/kg soil
[32] = 13 d after treatment, C2H5CO2H 500 mg/kg soil
[33] = 20 d after treatment, C2H5CO2H 100 mg/kg soil
[34] = 20 d after treatment, C2H5CO2H 200 mg/kg soil
[35] = 20 d after treatment, C2H5CO2H 300 mg/kg soil
[36] = 20 d after treatment, C2H5CO2H 400 mg/kg soil
[37] = 20 d after treatment, C2H5CO2H 500 mg/kg soil
[38] = microbivorous nematodes, in vivo, 57 d, pH 6.2

N#CN [Cyanamide, hydrogen cyanamide]
Surviving Nematodes: Spiral (spiral nematodes; [1]): 102 per 100 mL of soil | Surviving Nematodes: Spiral (spiral nematodes; [2]): 95 per 100 mL of soil | Surviving Nematodes: Spiral (spiral nematodes; [3]): 59 per 100 mL of soil | Surviving Nematodes: Spiral (spiral nematodes; [4]): 76 per 100 mL of soil | Surviving Nematodes: Spiral (spiral nematodes; [5]): 18 per 100 mL of soil | Surviving Nematodes: Spiral (spiral nematodes; [6]): 6.7 per 100 mL of soil | Surviving Nematodes: Spiral (spiral nematodes; [7]): 3.7 per 100 mL of soil | Surviving Nematodes: Spiral (spiral nematodes; [8]): 2.9 per 100 mL of soil | Surviving Nematodes: Spiral (spiral nematodes; [9]): 9.8 per 100 mL of soil | Surviving Nematodes: Spiral (spiral nematodes; [10]): 4.7 per 100 mL of soil | Surviving Nematodes in Root System: Spiral (spiral nematodes; [11]): 42.3 Per Pot | Surviving Nematodes in Root System: Spiral (spiral nematodes; [12]): 38.6 Per Pot | Surviving Nematodes in Root System: Spiral (spiral nematodes; [13]): 42 Per Pot | Surviving Nematodes in Root System: Spiral (spiral nematodes; [14]): 28 Per Pot | Surviving Nematodes in Root System: Spiral (spiral nematodes; [15]): 16 Per Pot | Weeds Per Pot: Morningglory (morningglory; [16]): 3.3 | Weeds Per Pot: Morningglory (morningglory; [17]): 2.7 | Weeds Per Pot: Morningglory (morningglory; [18]): 2.9 | Morningglory weeds per pot (morningglory; [19]): about three or fewer momingglory weeds per pot | Surviving Nematodes: Reniform (reniform nematodes; [1]): 274 per 100 mL of soil | Surviving Nematodes: Reniform (reniform nematodes; [2]): 191 per 100 mL of soil | Surviving Nematodes: Reniform (reniform nematodes; [3]): 102 per 100 mL of soil | Surviving Nematodes: Reniform (reniform nematodes; [4]): 120 per 100 mL of soil | Surviving Nematodes: Reniform (reniform nematodes; [5]): 16 per 100 mL of soil | Surviving Nematodes: Reniform (reniform nematodes; [6]): 240 per 100 mL of soil | Surviving Nematodes: Reniform (reniform nematodes; [7]): 190 per 100 mL of soil | Surviving Nematodes: Reniform (reniform nematodes; [8]): 167 per 100 mL of soil | Surviving Nematodes: Reniform (reniform nematodes; [9]): 354 per 100 mL of soil | Surviving Nematodes: Reniform (reniform nematodes; [10]): 95 per 100 mL of soil | Surviving Nematodes in Root System: Reniform (reniform nematodes; [11]): 25.7 Per Pot | Surviving Nematodes in Root System: Reniform (reniform nematodes; [12]): 9.6 Per Pot | Surviving Nematodes in Root System: Reniform (reniform nematodes; [13]): 13.4 Per Pot | Surviving Nematodes in Root System: Reniform (reniform nematodes; [14]): 19.4 Per Pot | Surviving Nematodes in Root System: Reniform (reniform nematodes; [15]): 4.3 Per Pot | Weeds Per Pot: All Weeds (all weeds; [16]): 6.3 | Weeds Per Pot: All Weeds (all weeds; [17]): 7.7 | Weeds Per Pot: All Weeds (all weeds; [18]): 10.1 | Total weeds per pot (all weeds; [19]): less than ten total weeds per pot | Surviving Nematodes: Microbivorous (microbivorous nematodes; [1]): 92 per 100 mL of soil | Surviving Nematodes: Microbivorous (microbivorous nematodes; [2]): 86 per 100 mL of soil | Surviving Nematodes: Microbivorous (microbivorous nematodes; [3]): 96 per 100 mL of soil | Surviving Nematodes: Microbivorous (microbivorous nematodes; [4]): 144 per 100 mL of soil | Surviving Nematodes: Microbivorous (microbivorous nematodes; [5]): 75 per 100 mL of soil | Surviving Nematodes: Microbivorous (microbivorous nematodes; [6]): 132 per 100 mL of soil | Surviving Nematodes: Microbivorous (microbivorous nematodes; [7]): 121 per 100 mL of soil | Surviving Nematodes: Microbivorous (microbivorous nematodes; [8]): 78 per 100 mL of soil | Surviving Nematodes: Microbivorous (microbivorous nematodes; [9]): 99 per 100 mL of soil | Surviving Nematodes: Microbivorous (microbivorous nematodes; [10]): 52 per 100 mL of soil | Surviving Nematodes in Root System: Microbivorous (microbivorous nematodes; [11]): 176.9 Per Pot | Surviving Nematodes in Root System: Microbivorous (microbivorous nematodes; [12]): 126.9 Per Pot | Surviving Nematodes in Root System: Microbivorous (microbivorous nematodes; [13]): 118 Per Pot | Surviving Nematodes in Root System: Microbivorous (microbivorous nematodes; [14]): 113 Per Pot | Surviving Nematodes in Root System: Microbivorous (microbivorous nematodes; [15]): 123 Per Pot

CCC(=O)O [C2H5CO2H, propionic acid]
Surviving Nematodes: Spiral (spiral nematodes; [20]): 47 per 100 mL of soil | Surviving Nematodes: Spiral (spiral nematodes; [21]): 12.4 per 100 mL of soil | Surviving Nematodes in Root System: Spiral (spiral nematodes; [22]): 25.9 Per Pot | Weeds Per Pot: Morningglory (morningglory; [23]): 7 | Weeds Per Pot: Morningglory (morningglory; [24]): 2.1 | Weeds Per Pot: Morningglory (morningglory; [25]): 0 | Weeds Per Pot: Morningglory (morningglory; [26]): 0 | Weeds Per Pot: Morningglory (morningglory; [27]): 0 | Weeds Per Pot: Morningglory (morningglory; [28]): 7.3 | Weeds Per Pot: Morningglory (morningglory; [29]): 2.1 | Weeds Per Pot: Morningglory (morningglory; [30]): 0 | Weeds Per Pot: Morningglory (morningglory; [31]): 0 | Weeds Per Pot: Morningglory (morningglory; [32]): 0 | Weeds Per Pot: Morningglory (morningglory; [33]): 7.3 | Weeds Per Pot: Morningglory (morningglory; [34]): 2.1 | Weeds Per Pot: Morningglory (morningglory; [35]): 0 | Weeds Per Pot: Morningglory (morningglory; [36]): 0 | Weeds Per Pot: Morningglory (morningglory; [37]): 0 | Surviving Nematodes: Reniform (reniform nematodes; [20]): 280 per 100 mL of soil | Surviving Nematodes: Reniform (reniform nematodes; [21]): 328 per 100 mL of soil | Surviving Nematodes in Root System: Reniform (reniform nematodes; [22]): 64.7 Per Pot | Weeds Per Pot: All Weeds (all weeds; [23]): 22.4 | Weeds Per Pot: All Weeds (all weeds; [24]): 12.6 | Weeds Per Pot: All Weeds (all weeds; [25]): 5.7 | Weeds Per Pot: All Weeds (all weeds; [26]): 4 | Weeds Per Pot: All Weeds (all weeds; [27]): 3.4 | Weeds Per Pot: All Weeds (all weeds; [28]): 24.4 | Weeds Per Pot: All Weeds (all weeds; [29]): 14.9 | Weeds Per Pot: All Weeds (all weeds; [30]): 8.6 | Weeds Per Pot: All Weeds (all weeds; [31]): 7.6 | Weeds Per Pot: All Weeds (all weeds; [32]): 6.7 | Weeds Per Pot: All Weeds (all weeds; [33]): 25.1 | Weeds Per Pot: All Weeds (all weeds; [34]): 15.9 | Weeds Per Pot: All Weeds (all weeds; [35]): 10 | Weeds Per Pot: All Weeds (all weeds; [36]): 8.4 | Weeds Per Pot: All Weeds (all weeds; [37]): 8 | Herbicidal activity of propionic acid alone (all weeds; post-emergence, uncovered pots): demonstrated herbicidal activity on its own | Surviving Nematodes: Microbivorous (microbivorous nematodes; microbivorous nematodes, in vivo, 12 d, pH 6.2): 66 per 100 mL of soil | Surviving Nematodes in Root System: Microbivorous (microbivorous nematodes; [38]): 96 Per Pot | Surviving Nematodes: Microbivorous (microbivorous nematodes; [38]): 45 per 100 mL of soil
